{
  "source": "patent US8912184B1",
  "about": "“Therapeutic and diagnostic methods” (Alzheimer's Institute of America, Inc., priority 2010, dated 2014)",
  "key": {"HCT116 cells [1]": {"system": "HCT116 cells", "test": "ATP measured in cellular lysates (ATP depletion) of HCT116 cells", "format": "cell-based", "conditions": "Homo sapiens, read-out: potency (IC50) for ATP depletion", "description": "NAD in cells was measured by modification of existing protocols (Lee, H. I., et al. Exp. Mol. Med. 40, 246-253 (2008)). MCF-10A cells stably transduced with the PIK3CA(H1047R) oncogene were seeded in 96 well plates at very high density (100% confluence) and allowed to settle overnight. Test compound dissolved in DMSO was added and drug incubation proceeded for 20-24 hours. Cells were washed with PBS and harvested by incubation in 25 μL 0.5 M perchloric acid (HClO4) followed by vigorous shaking at 4° C. for 15 minutes. Acidic cell lysates were neutralized by adding 8 μL of 2 M KOH/0.2 M K2HPO4. The entire lysate volume was transferred to a centrifuge plate and spun at 3000 rpm in a table top centrifuge (4° C.) for 5 minutes to clear the precipitate. […] Reactions were allowed to proceed for 1 hour at room temperature, after which time fluorescence was read on a Gemini plate reader as described above.\nFor ATP measurement, 5 μL of cleared lysate was added to 195 μL PBS. 50 μL CellTiter-Glo reagent (Promega Corporation, Madison, Wis.) was added and ATP measured as described in the cytotoxicity assay methods.\nKinetics of NAD and ATP depletion in Naprt1-proficient HCT116 cells induced by Exemplary Compound A was studied using the assays described above. HCT116 cells were treated with 8.5 nM Exemplary Compound A and cellular NAD and ATP were measured at various times. […]"}, "HCT116 cells [2]": {"system": "HCT116 cells", "test": "72 Hour HCT116 Cytotoxicity Assay (CellTiter-Glo)", "format": "cell-based", "conditions": "Homo sapiens, HCT-116, 72 h, HCT116 cells, 72 h, read-out: IC50 cytotoxicity", "method": "HCT116 cells were seeded in 96 well plates (Greiner Bio-One, Monroe, N.C.) and allowed to settle overnight. Test compound dissolved in dimethyl sulfoxide (DMSO) was added and drug incubation proceeded for 72 hours. […] After 72 hour, 50 μL of CellTiter-Glo Luminescent Cell Viability Assay reagent (Promega Corporation, Madison, Wis.) was added to cells in 200 μL of cellular media. After a proscribed incubation period, luminescence was measured using a TopCount NXT plate reader (PerkinElmer, Waltham, Mass.)."}, "[3]": {"system": "MIAPaCa-2 xenograft tumors", "test": "MIAPaCa-2 human pancreatic carcinoma murine xenograft, tumor growth and survival", "format": "in vivo, mice", "conditions": "for animals having tumor volumes >1500 mm3 at end of study: Day 40", "description": "Exemplary Compound A was tested for its ability to suppress tumor growth, and promote survival in MIAPaCa-2 human pancreatic carcinoma (i.e., a Naprt-deficient cancer) murine xenograft models (FIG. 9). In these experiments, MIAPaCa-2 tumor-bearing mice with a median tumor volume of 202 mm^3 were orally dosed on days 1, 10 and 19 with either vehicle, 75 mg/kg Exemplary Compound A or 200 mg/kg Exemplary Compound A in combination with 400 mg/kg NA, or were orally dosed daily with 400 mg/kg NA for 21 days. See key below FIG. 9(b). NA was always administered one hour prior to dosing with Exemplary Compound A or vehicle."}, "HCT116 xenograft tumors": {"system": "HCT116 xenograft tumors", "test": "NAD levels in tumor lysates of HCT116 xenograft mice", "format": "in vivo", "conditions": "single oral dose on day 0, after two days", "description": "Exemplary Compound A was tested for its ability to deplete NAD levels and promote tumor regression in an HCT116 (i.e., a Naprt-proficient cancer) murine xenograft model. Three million HCT116 human colon carcinoma cells were injected subcutaneously into nu/nu mice to form tumors. Dosing was started ten days later when median tumor volume was >100 mm^3.\nExemplary Compound A was administered orally once on day 0 (arrow) to HCT116 tumor-bearing xenograft mice and NAD levels were determined for tumor lysates every other day for 8 days."}, "[4]": {"format": "in vivo", "conditions": "mice, single oral dose 300 mg/kg, by 5 days"}, "[5]": {"test": "Maximum tolerated dose in mice", "conditions": "nu/nu, mouse, in vivo, oral"}},
  "data": [
    {"smiles": "O=C(NCc1cccnc1)Nc1ccc(COc2ccccc2-c2ccccc2)cc1", "note": "[Exemplary Compound A, 1-{4-[(biphenyl-2-yloxy)methyl]phenyl}-3-(pyridin-3-ylmethyl)urea]", "values": [
      {"measurement": "IC50", "setting": "HCT116 cells [1]; HCT-116, 0.5 h, exposure 30 min", "value": 33, "unit": "nM"},
      {"measurement": "IC50", "setting": "HCT116 cells [1]; HCT-116, after 48 h exposure", "value": "~0.6", "unit": "nM"},
      {"measurement": "IC50", "setting": "HCT116 cells [2]; absence of 10 μM NA", "value": 0.26, "unit": "nM"},
      {"measurement": "IC50", "setting": "HCT116 cells [2]; presence of 10 μM NA", "value": "> 10000", "unit": "nM"},
      {"measurement": "survival", "setting": "[3]; 200 mg/kg with 400 mg/kg NA", "value": "significantly increased survival"},
      {"measurement": "animals having tumor volumes >1500 mm3 at end of study", "setting": "[3]; 200 mg/kg with 400 mg/kg NA", "value": "two"},
      {"measurement": "tumor growth inhibition (TGI) relative to vehicle", "setting": "[3]; oral 75 mg/kg days 1, 10, 19, day 19", "value": 53, "unit": "%"},
      {"measurement": "tumor growth inhibition (TGI)", "setting": "[3]; oral 200 mg/kg with 400 mg/kg NA days 1, 10, 19, day 19", "value": 88, "unit": "%"},
      {"measurement": "animals having tumor volumes >1500 mm3 at end of study", "setting": "[3]; other cohorts (incl. 75 mg/kg)", "value": "eight"},
      {"measurement": "depletion of NAD in tumor lysates", "setting": "HCT116 xenograft tumors", "value": 94, "unit": "%"},
      {"measurement": "lethality", "setting": "[4]", "value": "completely lethal"},
      {"measurement": "MTD", "setting": "[5]", "value": 75, "unit": "mg/kg"}
    ]}
  ]
}
